# Measured values published in the supplement of paper PMC11451515.
# System: P12-Ichikawa
# Assay: cell viability relative to DMSO control; higher = less cytotoxic
# Conditions: 48 h
# In short: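 In 1536-well plates, 5 μl of leukemia cells were seeded per well: 500 cells/well for NOMO1 or SEM and 1000 cells/well for P12-Ichikawa. Each line had first been adapted for at least four passages in each medium. Library compounds in DMSO were pin-dosed at 11 threefold concentrations between 47 μM and 0.79 nM, and CellTiter-Glo One luminescence was read after 48 h at 37°C. Viability is a per-plate percentage relative to DMSO wells, with cell-free wells as background.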
# [1] = HPLM + 10% dialyzed FBS, 0.000781 µM
# [2] = HPLM + 10% dialyzed FBS, 0.00234 µM
# [3] = HPLM + 10% dialyzed FBS, 0.00702 µM
# [4] = HPLM + 10% dialyzed FBS, 0.0211 µM
# [5] = HPLM + 10% dialyzed FBS, 0.0632 µM
# [6] = HPLM + 10% dialyzed FBS, 0.19 µM
# [7] = HPLM + 10% dialyzed FBS, 0.569 µM
# [8] = HPLM + 10% dialyzed FBS, 1.71 µM
# [9] = HPLM + 10% dialyzed FBS, 5.12 µM
# [10] = HPLM + 10% dialyzed FBS, 15.4 µM
# [11] = HPLM + 10% dialyzed FBS, 46.1 µM
# [12] = RPMI 5 mM glucose + 10% FBS, 0.000781 µM
# [13] = RPMI 5 mM glucose + 10% FBS, 0.00234 µM
# [14] = RPMI 5 mM glucose + 10% FBS, 0.00702 µM
# [15] = RPMI 5 mM glucose + 10% FBS, 0.0211 µM
# [16] = RPMI 5 mM glucose + 10% FBS, 0.0632 µM
# [17] = RPMI 5 mM glucose + 10% FBS, 0.19 µM
# [18] = RPMI 5 mM glucose + 10% FBS, 0.569 µM
# [19] = RPMI 5 mM glucose + 10% FBS, 1.71 µM
# [20] = RPMI 5 mM glucose + 10% FBS, 5.12 µM
# [21] = RPMI 5 mM glucose + 10% FBS, 15.4 µM
# [22] = RPMI 5 mM glucose + 10% FBS, 46.1 µM
# [23] = RPMI 5 mM glucose + 10% dialyzed FBS, 0.000781 µM
# [24] = RPMI 5 mM glucose + 10% dialyzed FBS, 0.00234 µM
# [25] = RPMI 5 mM glucose + 10% dialyzed FBS, 0.00702 µM
# [26] = RPMI 5 mM glucose + 10% dialyzed FBS, 0.0211 µM
# [27] = RPMI 5 mM glucose + 10% dialyzed FBS, 0.0632 µM
# [28] = RPMI 5 mM glucose + 10% dialyzed FBS, 0.19 µM
# [29] = RPMI 5 mM glucose + 10% dialyzed FBS, 0.569 µM
# [30] = RPMI 5 mM glucose + 10% dialyzed FBS, 1.71 µM
# [31] = RPMI 5 mM glucose + 10% dialyzed FBS, 5.12 µM
# [32] = RPMI 5 mM glucose + 10% dialyzed FBS, 15.4 µM
# [33] = RPMI 5 mM glucose + 10% dialyzed FBS, 46.1 µM
Structure (SMILES),cell viability [1] [%],cell viability [2] [%],cell viability [3] [%],cell viability [4] [%],cell viability [5] [%],cell viability [6] [%],cell viability [7] [%],cell viability [8] [%],cell viability [9] [%],cell viability [10] [%],cell viability [11] [%],cell viability [12] [%],cell viability [13] [%],cell viability [14] [%],cell viability [15] [%],cell viability [16] [%],cell viability [17] [%],cell viability [18] [%],cell viability [19] [%],cell viability [20] [%],cell viability [21] [%],cell viability [22] [%],cell viability [23] [%],cell viability [24] [%],cell viability [25] [%],cell viability [26] [%],cell viability [27] [%],cell viability [28] [%],cell viability [29] [%],cell viability [30] [%],cell viability [31] [%],cell viability [32] [%],cell viability [33] [%]
CN1c2ccccc2C(=O)N2CCc3c([nH]c4ccccc34)C21 (configuration not stated),122,118,112,123,119,120,116,115,111,116,117,125,139,113,119,121,118,122,119,117,118,111,127,122,114,125,129,116,111,114,118,115,107
COC[C@H](c1ccc(C(F)(F)F)cc1)N1CCN(C2(C)CCN(C(=O)c3c(C)ncnc3C)CC2)C[C@H]1C.O=C(O)/C=C\C(=O)O,92,100,107,111,107,110,113,117,106,103,98.5,101,123,109,110,106,121,109,104,105,99.8,99.3,90.1,108,99.7,110,103,111,117,110,102,95.2,92.1
Nc1nc(N)c2nc(-c3cccc(O)c3)c(-c3cccc(O)c3)nc2n1,117,113,113,110,120,117,94.6,89.9,81.2,72.2,55.2,108,117,113,109,122,112,118,118,101,89,28.1,111,116,113,123,120,114,107,116,108,95.5,52.1
N[S+](=O)([O-])c1cccc2c1C(=O)c1cccc(O)c1C2=O,108,106,115,111,121,114,114,118,105,80.9,4.7,102,105,108,112,116,123,106,111,96.7,102,3.97,98.9,95.8,110,106,113,121,104,112,94.3,92.8,3.3
ClC1=CC\2=C(NC(=O)\C(=C2N[C@@H]3CN4CCC3CC4)C5=NC6=C([NH]5)C=CC=C6)C=C1,110,117,112,113,112,104,56.8,11.9,8.98,10.4,18.9,102,120,113,120,122,55.9,19.6,13.1,11,9.4,14.9,116,122,119,112,116,95.8,45.1,14,12.5,12.4,16.4
C[C@]12CC[C@H]3[C@@H](C\C=C/4C[C@@H](O)CC[C@]34C)[C@@H]1CCC2=O,111,110,117,108,110,115,107,111,58,102,96.2,,,,,,,,,,,,111,109,115,108,122,114,105,102,99.1,101,98.5
C[C@@H](NC(=O)c1ncnc(N)c1Cl)c1ncc(C(=O)Nc2cc(C(F)(F)F)c(Cl)cn2)s1,124,119,121,123,120,122,116,115,116,104,92.7,,,,,,,,,,,,,,,,,,,,,,
COc1ccc2c(c1)c(CC(=O)OCC(=O)O)c(C)n2C(=O)c1ccc(Cl)cc1,119,126,118,113,116,114,112,118,112,116,108,,,,,,,,,,,,120,125,116,139,116,119,120,113,115,113,107
CC1=C(CC(=O)O)c2cc(F)ccc2/C1=C\c1ccc([S+](C)[O-])cc1 (configuration not stated),121,110,116,123,124,117,116,109,108,106,101,,,,,,,,,,,,121,120,127,125,112,122,109,108,111,111,105
